Test results reported in paper PMC5991783, “Discovery and Optimization of Indolyl-Containing 4-Hydroxy-2-Pyridone Type II DNA Topoisomerase Inhibitors Active against Multidrug Resistant Gram-negative Bacteria” (Journal of Medicinal Chemistry, 2018).
Converted amounts (≈) assume the structure as drawn. Counter-ions that a name gives are not always drawn. Like-named read-outs stand apart in the source and are kept apart here. Marks after values point to notes of the source that are not given here.

Legend:
[1] = tested on: Klebsiella pneumoniae ATCC 35657; test: MIC, wild-type K. pneumoniae; type: cell-based; conditions: K. pneumoniae ATCC 35657
A. baumannii MMX2240 = test: MIC, fluoroquinolone resistant A. baumannii; type: cell-based, Acinetobacter baumannii
E. coli SKM18 = test: microbe, parasite or virus in culture; type: cell-based, Escherichia coli; conditions: for MIC E. coli^R1: E. coli SKM18
E. coli ATCC 25922 = test: MIC, wild-type E. coli ATCC 25922; type: cell-based, Escherichia coli; conditions: for increase in MIC values against the wild-type E. coli strain compared to the permeable strain: E. coli^WT vs E. coli^P; for MIC: Escherichia coli
[2] = tested on: Acinetobacter baumannii ATCC BAA-747; test: MIC, wild-type A. baumannii; type: cell-based; conditions: A. baumannii ATCC BAA-747
[3] = tested on: panel of 12 E. coli isolates; design: method as in PMID 29032026; conditions: abbreviated panel of E. coli strains; cited from earlier work
E. coli^WT (ATCC 25922) [4] = tested on: E. coli^WT (ATCC 25922); design: method as in PMID 29032026; conditions: cited from earlier work
E. coli^WT = test: Time-kill kinetics, E. coli
A. baumannii^WT = test: Time-kill kinetics, A. baumannii
E. coli DNA gyrase = E. coli DNA gyrase (Escherichia coli, UniProt P0AES4+P0AES6); test: biochemical
human topoisomerase II = human topoisomerase II (Homo sapiens, UniProt P11388); test: Human topoisomerase II decatenation assay; type: biochemical; conditions: Supplemental Table 1; read-out: Human Topo II IC50
human topoisomerase II, sequence (P11388 whole entry): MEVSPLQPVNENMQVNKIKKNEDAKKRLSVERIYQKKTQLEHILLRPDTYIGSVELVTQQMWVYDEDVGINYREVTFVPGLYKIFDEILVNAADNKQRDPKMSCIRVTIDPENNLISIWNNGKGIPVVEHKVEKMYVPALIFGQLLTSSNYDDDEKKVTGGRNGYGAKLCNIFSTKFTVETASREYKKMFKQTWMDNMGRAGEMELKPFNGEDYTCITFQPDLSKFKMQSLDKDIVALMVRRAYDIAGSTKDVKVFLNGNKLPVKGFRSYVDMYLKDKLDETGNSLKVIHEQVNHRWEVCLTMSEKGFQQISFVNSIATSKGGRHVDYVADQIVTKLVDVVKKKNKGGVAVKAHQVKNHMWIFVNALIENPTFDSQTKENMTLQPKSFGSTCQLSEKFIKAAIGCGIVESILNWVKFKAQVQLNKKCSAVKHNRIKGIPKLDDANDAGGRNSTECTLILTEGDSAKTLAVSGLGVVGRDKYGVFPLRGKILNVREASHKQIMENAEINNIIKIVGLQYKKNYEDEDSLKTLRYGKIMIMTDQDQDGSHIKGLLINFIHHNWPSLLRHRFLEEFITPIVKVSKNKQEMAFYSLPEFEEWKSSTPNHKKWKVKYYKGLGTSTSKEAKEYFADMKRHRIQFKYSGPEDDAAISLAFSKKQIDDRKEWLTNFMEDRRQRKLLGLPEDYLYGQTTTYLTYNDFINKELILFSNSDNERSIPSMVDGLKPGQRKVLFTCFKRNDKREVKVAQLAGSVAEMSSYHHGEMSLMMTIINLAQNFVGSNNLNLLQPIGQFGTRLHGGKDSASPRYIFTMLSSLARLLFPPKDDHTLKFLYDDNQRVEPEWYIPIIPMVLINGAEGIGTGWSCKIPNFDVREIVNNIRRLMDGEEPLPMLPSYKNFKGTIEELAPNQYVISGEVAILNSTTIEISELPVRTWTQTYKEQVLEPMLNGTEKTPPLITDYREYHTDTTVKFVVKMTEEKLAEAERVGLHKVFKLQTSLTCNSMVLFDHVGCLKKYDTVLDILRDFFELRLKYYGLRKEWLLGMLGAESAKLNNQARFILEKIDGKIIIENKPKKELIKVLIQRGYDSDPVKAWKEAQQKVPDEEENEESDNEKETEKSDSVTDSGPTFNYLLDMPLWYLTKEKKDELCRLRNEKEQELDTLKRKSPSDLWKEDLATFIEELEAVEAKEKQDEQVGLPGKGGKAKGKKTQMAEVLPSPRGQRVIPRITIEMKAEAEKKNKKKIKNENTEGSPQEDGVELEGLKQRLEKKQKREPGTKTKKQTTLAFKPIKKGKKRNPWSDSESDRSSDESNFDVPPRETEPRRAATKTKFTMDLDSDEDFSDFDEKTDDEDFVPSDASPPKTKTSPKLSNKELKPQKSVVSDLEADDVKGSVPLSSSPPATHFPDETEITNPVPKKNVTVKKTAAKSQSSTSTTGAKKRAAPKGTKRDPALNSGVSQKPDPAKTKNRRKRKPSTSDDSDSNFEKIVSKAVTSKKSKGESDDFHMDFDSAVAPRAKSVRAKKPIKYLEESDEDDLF

[5] = Pharmacokinetics in CD-1 mice; conditions: CD-1, mouse, plasma, iv, 10 mg/kg
E. coli^WT (ATCC 25922) [6] = test: Mouse septicemia model; type: in vivo, CD-1 mice; conditions: 96 h; for responders at 20 mg/kg: Mus musculus, iv, read-out: survival
[7] = tested on: panel of 12 A. baumannii isolates; test: Susceptibility testing, 12 A. baumannii isolates; type: cell-based, Acinetobacter baumannii
[8] = tested on: panel of 12 E. coli isolates; test: Susceptibility testing, 12 E. coli isolates; type: cell-based, Escherichia coli
E. coli SKM11 = type: cell-based, Escherichia coli
E. coli 1609 = test: MIC, wild-type E. coli 1609; type: cell-based; conditions: Escherichia coli, read-out: MIC E. coli^WT2
[9] = biological target: E. coli DNA gyrase^SD-LY (GyrA S83L, D87Y) (Escherichia coli, UniProt P0AES4+P0AES6, D87Y/S83L); type: biochemical; conditions: IC50 ratio
in vivo = conditions: CD-1, mouse, iv, 3 mg/kg
[10] = ATCC25922, read-out: MIC E. coli^WT, E. coli ATCC 25922
[11] = E. coli enzymatic activity, DNA gyrase IC50

Compound: 10-((sec-Butylamino)methyl)-4-hydroxy-9-methyl-2-oxo-1,2,5,6,7,9-hexahydropyrido[3′,2′:6,7]cyclohepta[1,2-f]indole-3-carboxylic Acid Hydrochloride [Compound 6n]
- MIC K. pneu^WT [1]: 0.50 µg/mL
- MIC A. bau^R (A. baumannii MMX2240): 0.50 µg/mL
- MIC E. coli^R1 (E. coli SKM18): 0.78 µg/mL
- MIC E. coli^WT (E. coli ATCC 25922; E. coli ATCC 25922): 0.78 µg/mL
- MIC A. bau^WT [2]: 0.78 µg/mL

Compound: CCc1c(-c2ccc(N3C[C@@H]4[C@@H](N)[C@@H]4C3)cc2)[nH]c(=O)c(C(=O)O)c1O [Compound 1b]
- MIC90 E. coli [3]: 8 µg/mL (≈ 22.5 µM)
- efficacy in a murine septicemia model (E. coli^WT (ATCC 25922) [4]): demonstrated efficacy

Compound: CCc1c(-c2ccc3c(ccn3C)c2)[nH]c(=O)c(C(=O)O)c1O [Compound 2a, 5-Ethyl-4-hydroxy-6-(1-methyl-1H-indol-5-yl)-2-oxo-1,2-dihydropyridine-3-carboxylic Acid]
- increase in MIC values against the wild-type E. coli strain compared to the permeable strain (E. coli ATCC 25922): greater than 25 fold

Compound: CCc1c(-c2ccc3c(c2)cc(C)n3C)[nH]c(=O)c(C(=O)O)c1O [Compound 2b, 6-(1,2-Dimethyl-1H-indol-5-yl)-5-ethyl-4-hydroxy-2-oxo-1,2-dihydropyridine-3-carboxylic Acid]
- increase in MIC values against the wild-type E. coli strain compared to the permeable strain (E. coli ATCC 25922): greater than 25 fold

Compound: CCc1c(-c2ccc3c(c2)cc(CN2CCC2)n3C)[nH]c(=O)c(C(=O)O)c1O [Compound 2m, 6-(2-(Azetidin-1-ylmethyl)-1-methyl-1H-indol-5-yl)-5-ethyl-4-hydroxy-2-oxo-1,2-dihydropyridine-3-carboxylic Acid Hydrochloride]
- mode of bacterial inhibition (time–kill kinetics) (E. coli^WT; E. coli^WT, several concentrations): concentration-dependent bactericidal activity
- reduction in the number of CFUs (E. coli^WT; concentrations above the MIC, within ∼2 h): more than 3 log10 units
- mode of bacterial inhibition (time–kill kinetics) (A. baumannii^WT; A. baumannii^WT, several concentrations): concentration-dependent bactericidal activity
- reduction in the number of CFUs (A. baumannii^WT; above 2-fold of the MIC, within ∼2 h): ~2 log10 units

Compound: CNCc1cc2cc3c(cc2n1C)CCc1c-3[nH]c(=O)c(C(=O)O)c1O.Cl [Compound 5a]
- MIC (E. coli SKM18; Escherichia coli, SKM18, read-out: MIC E. coli^R1, E. coli SKM18): 7.8 µg/mL
- MIC (E. coli ATCC 25922; [10]): 7.8 µg/mL
- IC50 (E. coli DNA gyrase; [11]): 900 nM

Compound: CCNCc1cc2cc3c(cc2n1C)CCCc1c-3[nH]c(=O)c(C(=O)O)c1O [Compound 6a, 10-((Ethylamino)methyl)-4-hydroxy-9-methyl-2-oxo-1,2,5,6,7,9-hexahydropyrido[3′,2′:6,7]cyclohepta[1,2-f]indole-3-carboxylic Acid Hydrochloride]
- IC50 (E. coli DNA gyrase; E. coli DNA gyrase IC50, gyrase^WT): 560 nM
- IC50 (E. coli DNA gyrase; [11]): 100 nM
- IC50 (human topoisomerase II): > 100000 nM

Compound: CCNCc1cc2cc3c(cc2n1C)NCCc1c-3[nH]c(=O)c(C(=O)O)c1O [Compound 6g]
- MIC (E. coli ATCC 25922; [10]): 7.8 to 31.3 µg/mL (≈ 20.4 to 81.8 µM)

Compound: CC(C)NCc1cc2cc3c(cc2n1C)CCCc1c-3[nH]c(=O)c(C(=O)O)c1O [Compound 6i, 4-Hydroxy-10-((isopropylamino)methyl)-9-methyl-2-oxo-1,2,5,6,7,9-hexahydropyrido[3′,2′:6,7]cyclohepta[1,2-f]indole-3-carboxylic Acid Hydrochloride]
- AUC(0-t) at 24 h ([5]; pH 8): 1810 ng·h/mL
- clearance ([5]; pH 8): 64 mL/min/kg
- IC50 (E. coli DNA gyrase; E. coli DNA gyrase IC50): 2700 nM
- IC50 (human topoisomerase II): > 100000 nM

Compound: CC(C)NCc1cc2cc3c(cc2n1C)NCCc1c-3[nH]c(=O)c(C(=O)O)c1O [Compound 6l]
- MIC (E. coli ATCC 25922; [10]): 7.8 to 31.3 µg/mL (≈ 19.7 to 79 µM)

Compound: Cn1c(CNC2(C)CCC2)cc2cc3c(cc21)CCCc1c-3[nH]c(=O)c(C(=O)O)c1O [Compound 6p, 4-Hydroxy-9-methyl-10-(((1-methylcyclobutyl)amino)methyl)-2-oxo-1,2,5,6,7,9-hexahydropyrido[3′,2′:6,7]cyclohepta[1,2-f]indole-3-carboxylic Acid Hydrochloride]
- AUC(0-t) at 24 h ([5]; pH 4): 4580 ng·h/mL
- clearance ([5]; pH 4): 35 mL/min/kg
- responders at 20 mg/kg (E. coli^WT (ATCC 25922) [6]): 0%

Compound: Cn1c(CNC2(C)CCC2)cc2cc3c(cc21)OCCc1c-3[nH]c(=O)c(C(=O)O)c1O [Compound 6q, 4-Hydroxy-9-methyl-10-(((1-methylcyclobutyl)amino)methyl)-2-oxo-2,5,6,9-tetrahydro-1H-pyrido[2′,3′:4,5]oxepino[3,2-f]indole-3-carboxylic Acid Hydrochloride]
- AUC(0-t) at 24 h ([5]; pH 8): 4420 ng·h/mL
- clearance ([5]; pH 8): 37 mL/min/kg
- IC50 (E. coli DNA gyrase; E. coli DNA gyrase IC50): 730 nM
- MIC ([7]; Acinetobacter baumannii, read-out: A. baumannii MIC range): 0.06 to 16 µg/mL
- IC50 (human topoisomerase II): > 100000 nM

Compound: CN(C)Cc1cc2cc3c(cc2n1C)CCCc1c-3[nH]c(=O)c(C(=O)O)c1O [Compound 6r, 10-((Dimethylamino)methyl)-4-hydroxy-9-methyl-2-oxo-1,2,5,6,7,9-hexahydropyrido[3′,2′:6,7]cyclohepta[1,2-f]indole-3-carboxylic Acid Hydrochloride]
- AUC(0-t) at 24 h ([5]; pH 8): 3520 ng·h/mL
- clearance ([5]; pH 8): 47 mL/min/kg
- responders at 20 mg/kg (E. coli^WT (ATCC 25922) [6]): 100%
- IC50 (E. coli DNA gyrase; E. coli DNA gyrase IC50): 410 nM
- IC50 (human topoisomerase II): > 100000 nM

Compound: CN(C)Cc1cc2cc3c(cc2n1C)OCCc1c-3[nH]c(=O)c(C(=O)O)c1O [Compound 6s, 10-((Dimethylamino)methyl)-4-hydroxy-9-methyl-2-oxo-2,5,6,9-tetrahydro-1H-pyrido[2′,3′:4,5]oxepino[3,2-f]indole-3-carboxylic Acid Hydrochloride]
- AUC(0-t) at 24 h ([5]; pH 4): 2930 ng·h/mL
- clearance ([5]; pH 4): 53 mL/min/kg
- responders at 20 mg/kg (E. coli^WT (ATCC 25922) [6]): 100%
- IC50 (E. coli DNA gyrase; E. coli DNA gyrase IC50): 490 nM
- IC50 (human topoisomerase II): > 100000 nM

Compound: Cn1c(CN2CCCC2)cc2cc3c(cc21)CCCc1c-3[nH]c(=O)c(C(=O)O)c1O [Compound 6v, 4-Hydroxy-9-methyl-2-oxo-10-(pyrrolidin-1-ylmethyl)-1,2,5,6,7,9-hexahydropyrido[3′,2′:6,7]cyclohepta[1,2-f]indole-3-carboxylic Acid Hydrochloride]
- AUC(0-t) at 24 h ([5]; pH 8): 4050 ng·h/mL
- clearance ([5]; pH 8): 41 mL/min/kg
- E. coli MIC90 ([8]; 12 strains, Mueller Hinton II broth): 1 µg/mL
- MIC90 ([8]; Escherichia coli, read-out: E. coli MIC90, 12 strains, Mueller Hinton II broth): 0.5 to 1 µg/mL
- responders at 20 mg/kg (E. coli^WT (ATCC 25922) [6]): 100%
- IC50 (E. coli DNA gyrase; E. coli DNA gyrase IC50): 210 nM
- MIC90 ([7]; Acinetobacter baumannii, read-out: A. baumannii MIC90, 12 strains, Mueller Hinton II broth): 8 to 16 µg/mL
- IC50 (human topoisomerase II): > 100000 nM

Compound: Cn1c(CN2CCCC2)cc2cc3c(cc21)OCCc1c-3[nH]c(=O)c(C(=O)O)c1O [Compound 6w, 4-Hydroxy-9-methyl-2-oxo-10-(pyrrolidin-1-ylmethyl)-2,5,6,9-tetrahydro-1H-pyrido[2′,3′:4,5]oxepino[3,2-f]indole-3-carboxylic Acid Hydrochloride]
- IC50 (E. coli DNA gyrase; E. coli DNA gyrase IC50): 280 nM
- IC50 (human topoisomerase II): > 100000 nM

Compound: CO/N=C(\C(=O)N[C@@H]1C(=O)N2C(C(=O)[O-])=C(C[N+]3(C)CCCC3)CS[C@H]12)c1csc(N)n1 [cefepime, reference compound]
- MIC K. pneu^WT [1]: 0.02 µg/mL (≈ 0.0416 µM)
- MIC A. bau^R (A. baumannii MMX2240): 0.78 µg/mL (≈ 1.62 µM)
- MIC E. coli^R1 (E. coli SKM18): 0.05 µg/mL (≈ 0.104 µM)
- MIC E. coli^WT (E. coli ATCC 25922; E. coli ATCC 25922): 0.05 µg/mL (≈ 0.104 µM)
- MIC A. bau^WT [2]: 0.78 µg/mL (≈ 1.62 µM)

Compound: O=C(O)c1cn(C2CC2)c2cc(N3CCNCC3)c(F)cc2c1=O [ciprofloxacin]
- increase in MIC against E. coli^R3 (E. coli SKM11): 32 fold
- MIC E. coli^R1 (E. coli SKM18): > 250 µg/mL
- increase in MIC against E. coli^R1 (E. coli SKM18; additional Topo IV mutations, vs E. coli^R3): ~250 fold
- MIC (E. coli ATCC 25922; ATCC25922, E. coli ATCC 25922, read-out: MIC E. coli^WT): 0.012 µg/mL (≈ 0.0362 µM)
- MIC (E. coli 1609): 0.024 µg/mL (≈ 0.0724 µM)
- reduction in activity against DNA gyrase^SD-LY compared to DNA gyrase^WT [9]: greater than 13 fold

Compound: C[C@H]1COc2c(N3CCN(C)CC3)c(F)cc3c(=O)c(C(=O)O)cn1c23.C[C@H]1COc2c(N3CCN(C)CC3)c(F)cc3c(=O)c(C(=O)O)cn1c23.O [levofloxacin, reference compound]
- E. coli MIC range ([8]; 12 strains): 0.015 to 32 µg/mL
- A. baumannii MIC range ([7]; 12 strains): 0.06 to 64 µg/mL

Compound: COc1c(N2C[C@@H]3CCCN[C@@H]3C2)c(F)cc2c(=O)c(C(=O)O)cn(C3CC3)c12 [moxifloxacin, reference compound]
- AUC(0-t) at 24 h (in vivo): 640 ng·h/mL
- survival (E. coli^WT (ATCC 25922) [6]; neutropenic mice, E. coli^WT 100 × LD50, 3 mg/kg at 1 and 5 h postinfection (b.i.d.)): 100 ^n %

Compound: CN(C)c1cc(NC(=O)CNC(C)(C)C)c(O)c2c1C[C@H]1C[C@H]3[C@H](N(C)C)C(O)=C(C(N)=O)C(=O)[C@@]3(O)C(O)=C1C2=O [tigecycline, reference compound]
- MIC K. pneu^WT [1]: 0.13 µg/mL (≈ 0.222 µM)
- MIC A. bau^R (A. baumannii MMX2240): 0.78 µg/mL (≈ 1.33 µM)
- MIC E. coli^R1 (E. coli SKM18): 0.25 µg/mL (≈ 0.427 µM)
- MIC E. coli^WT (E. coli ATCC 25922; E. coli ATCC 25922): 0.13 µg/mL (≈ 0.222 µM)
- MIC A. bau^WT [2]: 0.78 µg/mL (≈ 1.33 µM)
